Source: patent publication US11839613B2, “Pyrimidine derivatives as PGE2 receptor modulators” (IDORSIA PHARMACEUTICALS LTD, priority 2017, dated 2023)

What was measured:
EP2 = EP2 (Homo sapiens (Human), UniProt P43116); assay: hEP2 cAMP assay (SF295 glioblastoma cells, HTRF cAMP); assay type: cell-based; conditions: antagonistic activity
Method in brief: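 PGE2-driven cAMP accumulation was measured by HTRF in SF295 cells, which express endogenous EP2 only. Cells in assay buffer with 2 mM IBMX were pre-incubated 45 min at RT, then incubated 30 min at RT. Detection used competition between cellular cAMP and d2-cAMP for a cryptate anti-cAMP antibody.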

EP4 = EP4 (Homo sapiens (Human), UniProt P35408); assay: hEP4 cAMP assay (BT549 breast cancer cells, HTRF cAMP); assay type: cell-based; conditions: antagonistic activity, PGE2 6 nM
Chain of EP4 (P35408 whole entry): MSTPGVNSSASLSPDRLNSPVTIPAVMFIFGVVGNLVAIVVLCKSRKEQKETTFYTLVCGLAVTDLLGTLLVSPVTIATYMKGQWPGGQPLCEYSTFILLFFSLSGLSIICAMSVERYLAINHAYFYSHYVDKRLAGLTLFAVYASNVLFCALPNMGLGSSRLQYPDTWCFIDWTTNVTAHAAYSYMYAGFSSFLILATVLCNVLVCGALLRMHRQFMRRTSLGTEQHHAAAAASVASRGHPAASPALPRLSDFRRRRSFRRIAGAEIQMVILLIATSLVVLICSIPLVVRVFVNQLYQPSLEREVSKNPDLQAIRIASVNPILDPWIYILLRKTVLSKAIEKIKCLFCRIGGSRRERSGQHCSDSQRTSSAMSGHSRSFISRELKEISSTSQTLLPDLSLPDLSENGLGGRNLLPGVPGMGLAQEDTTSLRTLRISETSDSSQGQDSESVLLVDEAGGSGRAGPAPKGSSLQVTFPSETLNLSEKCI
Method in brief: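 cAMP accumulation quantified by HTRF competition between cellular cAMP and d2-labeled cAMP for cryptate anti-cAMP antibody. Cells: endogenously EP4-expressing BT549, buffer with 2 mM IBMX; 45 min RT compound preincubation preceded 30 min RT challenge with PGE2 at 6 nM final.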

PTGER4 (EP4) = PTGER4 (EP4) (Homo sapiens (Human), UniProt P35408); assay: cell-based
Chain of PTGER4 (EP4) (P35408 whole entry): as above

PTGER2 (EP2) = PTGER2 (EP2) (Homo sapiens (Human), UniProt P43116); assay: hEP2 b-arrestin assay (PathHunter HEK 293 PTGER2 b-arrestin cells); assay type: cell-based; conditions: antagonistic activity, beta-arrestin assay; read-out: hEP2 b-arr IC50
Chain of PTGER2 (EP2) (P43116 whole entry): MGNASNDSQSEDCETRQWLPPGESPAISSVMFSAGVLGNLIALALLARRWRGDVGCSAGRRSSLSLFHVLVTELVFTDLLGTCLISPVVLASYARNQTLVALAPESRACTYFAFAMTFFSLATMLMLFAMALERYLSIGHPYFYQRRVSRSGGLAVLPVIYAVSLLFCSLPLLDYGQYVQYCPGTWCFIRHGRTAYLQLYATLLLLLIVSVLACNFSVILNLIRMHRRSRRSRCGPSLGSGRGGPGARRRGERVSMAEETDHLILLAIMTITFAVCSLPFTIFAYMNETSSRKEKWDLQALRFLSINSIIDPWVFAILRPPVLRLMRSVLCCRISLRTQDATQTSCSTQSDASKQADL
Method: Plate is pre-incubated 15 minutes at 37° C. Then five microliters of PGE2 (final conc. 5 μM) are transferred into the assay plate. Plate is incubated 120 minutes at 37° C.
(each concentration is measured in duplicate)

Chain of EP2 (P43116 whole entry): as above

| SMILES | IC50 (EP2) [nM] | IC50 (EP4) [nM] | IC50 (PTGER4 (EP4)) [nM] | IC50 (PTGER2 (EP2)) [nM] | IC50 (EP4; BT549 cells) [nM] |
| --- | --- | --- | --- | --- | --- |
| CCc1nc(-c2cc(NCCc3ccc4ccccc4c3C)ncn2)sc1C(=O)O [Example 351, 4-Ethyl-2-{6-[2-(1-methyl-naphthalen-2-yl)-ethylamino]-pyrimidin-4-yl}-thiazole-5-carboxylic acid] | 236 | 167 | 79 | 475 |  |
| COc1cc2c(cc1CCNc1cc(-c3ccc(C(=O)O)c(SC)c3)ncn1)OCO2 [Ex 277, 4-{6-[2-(6-Methoxy-benzo[1,3]dioxol-5-yl)-ethylamino]-pyrimidin-4-yl}-2-methylsulfanyl-benzoic acid] | 14 | 324 | 437 | 51 |  |
| CCOc1cc(-c2cc(NCCc3ccc4ccccc4c3C)ncn2)sc1C(=O)NS(N)(=O)=O [Example 354, 3-Ethoxy-5-(6-((2-(1-methylnaphthalen-2-yl)ethyl)amino)pyrimidin-4-yl)-N-sulfamoylthiophene-2-carboxamide] | 27 | 56 | 32 | 41 |  |
| CCCCOc1cc(-c2cc(NCCc3cc(F)c4sccc4c3)ncn2)ccc1C(=O)O [Example 454, 2-Butoxy-4-{6-[2-(7-fluoro-benzo[b]thiophen-5-yl)-ethylamino]-pyrimidin-4-yl}-benzoic acid] | 608 |  | 212 | 88 | 225 |
| CCOc1cc(-c2cc(NCCc3ccc4c(c3)CCCO4)ncn2)sc1C(=O)O [Ex 56, 5-[6-(2-Chroman-6-yl-ethylamino)-pyrimidin-4-yl]-3-ethoxy-thiophene-2-carboxylic acid] | 190 | 28 | 27 | 538 |  |
| Cc1c(CCNc2cc(-c3ccc(C(=O)O)c(OC(F)F)c3)ncn2)ccc2ccccc12 [Ex 83, 2-Difluoromethoxy-4-{6-[2-(1-methyl-naphthalen-2-yl)-ethylamino]-pyrimidin-4-yl}-benzoic acid] | 70 | 47 | 255 | 274 |  |
| CCOc1cc(-c2cc(NCCc3cc4occc4cc3OC)ncn2)ccc1OCC(=O)O [Ex 159, (2-Ethoxy-4-{6-[2-(5-methoxy-benzofuran-6-yl)-ethylamino]-pyrimidin-4-yl}-phenoxy)-acetic acid] | 179 | 157 | 140 | 180 |  |
| CCOc1cc(-c2cc(NCCc3cc4c(cc3C)OCCO4)ncn2)sc1C(=O)O [Ex 30, 3-Ethoxy-5-{6-[2-(7-methyl-2,3-dihydro-benzo[1,4]dioxin-6-yl)-ethylamino]-pyrimidin-4-yl}-thiophene-2-carboxylic acid] | 14 | 17 | 51 | 29 |  |
| CCOc1cc(-c2cc(NCCc3c(OC)cc4occc4c3C)ncn2)ccc1CC(=O)O [Ex 157, (2-Ethoxy-4-{6-[2-(6-methoxy-4-methyl-benzofuran-5-yl)-ethylamino]-pyrimidin-4-yl}-phenyl)-acetic acid] | 22 | 156 | 89 | 7 |  |
| CCOc1cc(-c2cc(NCCc3cc4c(cc3C)OCCO4)ncn2)sc1-c1noc(=O)[nH]1 [Example 341, 3-(3-Ethoxy-5-{6-[2-(7-methyl-2,3-dihydro-benzo[1,4]dioxin-6-yl)-ethylamino]-pyrimidin-4-yl}-thiophen-2-yl)-[1,2,4]oxadiazol-5(4H)-one] | 41 | 36 | 14 | 12 |  |
| CCCc1cc(-c2cc(NCCc3cc4ccsc4cc3OC)ncn2)ccc1CC(=O)O [Example 385, (4-{6-[2-(6-Methoxy-benzo[b]thiophen-5-yl)-ethylamino]-pyrimidin-4-yl}-2-propyl-phenyl)-acetic acid] | 180 | 134 | 71 | 30 |  |
| CCOc1cc(-c2cc(NCCc3c(OCC)cc4ccccc4c3C)ncn2)ccc1C(=O)O [Example 418, 2-Ethoxy-4-{6-[2-(3-ethoxy-1-methyl-naphthalen-2-yl)-ethylamino]-pyrimidin-4-yl}-benzoic acid] | 45 |  | 54 | 10 | 148 |
| CCCc1cc(-c2cc(NCCc3ccc4ccccc4c3C)ncn2)cc(F)c1C(=O)O [Ex 74, 2-Fluoro-4-{6-[2-(1-methyl-naphthalen-2-yl)-ethylamino]-pyrimidin-4-yl}-6-propyl-benzoic acid] | 151 | 40 | 257 | 450 |  |
| CCOc1cc2c(cc1CCNc1cc(-c3cc(OCC)c(C(=O)O)s3)ncn1)OCCO2 [Ex 39, 3-Ethoxy-5-{6-[2-(7-ethoxy-2,3-dihydro-benzo[1,4]dioxin-6-yl)-ethylamino]-pyrimidin-4-yl}-thiophene-2-carboxylic acid] | 2 | 19 | 14 | 4 |  |
| CCCOc1cc(-c2cc(NCCc3ccc4ccccc4c3C)ncn2)ccc1C(=O)O [Ex 183, 4-{6-[2-(1-Methyl-naphthalen-2-yl)-ethylamino]-pyrimidin-4-yl}-2-propoxy-benzoic acid] | 67 | 178 | 223 | 115 |  |
| CCc1cc(-c2cc(NCCc3cc(F)c4sccc4c3)ncn2)sc1C(=O)O [Example 455, 3-Ethyl-5-{6-[2-(7-fluoro-benzo[b]thiophen-5-yl)-ethylamino]-pyrimidin-4-yl}-thiophene-2-carboxylic acid] | 250 |  | 18 | 271 | 38 |
| COc1cc2sccc2cc1CCNc1cc(-c2ccc(C(=O)O)cc2)ncn1 [Ex 276, 4-{6-[2-(6-Methoxy-benzo[b]thiophen-5-yl)-ethylamino]-pyrimidin-4-yl}-benzoic acid] | 47 | 474 | 1820 | 79 |  |
| COc1cc2c(cc1CCNc1cc(-c3ccc(C(=O)O)c(SC)c3)ncn1)OCCO2 [Ex 116, 4-{6-[2-(7-Methoxy-2,3-dihydro-benzo[1,4]dioxin-6-yl)-ethylamino]-pyrimidin-4-yl}-2-methylsulfanyl-benzoic acid] | 23 | 86 | 135 | 76 |  |
| CCOc1cc(-c2cc(NCCc3cc4c(cc3OC)OCO4)ncn2)ccc1CC(=O)O [Ex 299] | 250 | 444 | 367 | 307 |  |
| CCOc1cc(-c2cc(NCCc3cc4ccsc4cc3C)ncn2)sc1C(=O)O [Ex 34, 3-Ethoxy-5-{6-[2-(6-methyl-benzo[b]thiophen-5-yl)-ethylamino]-pyrimidin-4-yl}-thiophene-2-carboxylic acid] | 8 | 18 | 25 | 6 |  |
| COc1cc2occc2cc1CCNc1cc(-c2ccc(C(=O)O)c(SC)c2)ncn1 [Ex 193, 4-{6-[2-(6-Methoxy-benzofuran-5-yl)-ethylamino]-pyrimidin-4-yl}-2-methylsulfanyl-benzoic acid] | 12 | 211 | 349 | 10 |  |
| CCOc1cc(-c2cc(NCCc3cc4ccsc4cc3C)ncn2)ccc1C(=O)O [Ex 254, 2-Ethoxy-4-{6-[2-(6-methyl-benzo[b]thiophen-5-yl)-ethylamino]-pyrimidin-4-yl}-benzoic acid] | 70 | 379 | 864 | 45 |  |
| CCOc1cc(-c2cc(NCCc3c(OCC)cc4ccccc4c3C)ncn2)ccc1CC(=O)O [Example 420, (2-Ethoxy-4-{6-[2-(3-ethoxy-1-methyl-naphthalen-2-yl)-ethylamino]-pyrimidin-4-yl}-phenyl)-acetic acid] | 257 |  | 30 | 27 | 119 |
| CCOc1cc(-c2cc(NCCc3cc4ccsc4cc3OC)ncn2)sc1-c1noc(=O)[nH]1 [Example 342, 3-(3-Ethoxy-5-{6-[2-(6-methoxy-benzo[b]thiophen-5-yl)-ethylamino]-pyrimidin-4-yl}-thiophen-2-yl)-[1,2,4]oxadiazol-5(4H)-one] | 20 | 19 | 3 | 7 |  |
| CCOc1cc(-c2cc(NCCc3ccc4[nH]ccc4c3)ncn2)sc1C(=O)O [Ex 32, 3-Ethoxy-5-{6-[2-(1H-indol-5-yl)-ethylamino]-pyrimidin-4-yl}-thiophene-2-carboxylic acid] | 161 | 18 | 56 | 199 |  |
| CCOc1cc(-c2cc(NCCc3cc(Cl)c4sccc4c3)ncn2)sc1C(=O)O [Example 359, 5-{6-[2-(7-Chloro-benzo[b]thiophen-5-yl)-ethylamino]-pyrimidin-4-yl}-3-ethoxy-thiophene-2-carboxylic acid] | 61 | 2 | 9 | 40 |  |
| CCOc1cc(-c2cc(NCCc3ccc4c(c3)OCO4)ncn2)sc1-c1noc(=O)[nH]1 [Example 344, 3-{5-[6-(2-Benzo[1,3]dioxol-5-yl-ethylamino)-pyrimidin-4-yl]-3-ethoxy-thiophen-2-yl}-[1,2,4]oxadiazol-5(4H)-one] | 33 | 14 | 39 | 33 |  |
